According to PMC4279406, “Simultaneous targeting of PI3Kδ and a PI3Kδ-dependent MEK1/2-Erk1/2 pathway for therapy in pediatric B-cell acute lymphoblastic leukemia” (Oncotarget, 2014):

What was measured:
[1] = tested on: PI3Kγ (MCP-1-stimulated THP-1 monocytes); experiment: MCP-1-stimulated Akt phosphorylation in THP-1 cells; type: cell-based; conditions: MCP-1 100 ng/ml
Procedure: In fibroblasts, signals from the insulin-like growth factor 1 (IGF-1) receptor are mediated by PI3Kα, while lysophosphatidic acid (LPA) stimulates G-protein coupled receptor (GPCR) signals via PI3Kβ[26]. After being pre-incubated with X-370, murine embryonic fibroblasts cultured in serum-free medium were stimulated with IGF-1 or LPA. […] Either PI3Kδ or PI3Kγ can be activated in THP-1 monocytes dependent on the stimulating ligand, among which macrophage colony stimulating factor (M-CSF/CSF-1) activates RTK-coupled PI3Kδ, while monocyte chemoattractant protein-1 (MCP-1) activates PI3Kγ [24]. Accordingly, THP-1 cells cultured in serum-free medium were stimulated with MCP-1 or M-CSF in the presence of X-370 and phosphorylated Akt was measured.
Cell lysates were probed with indicated antibodies. The IC50 values were calculated based on relative band intensity measured with ImageQuant™ TL (GE Healthcare Life Sciences, Piscataway, NJ) (B). Data shown are mean values from three independent experiments. (C, D, E, F) X-370 blocked stimuli-triggered PI3Kδ activation. MEF cells and THP-1 were starved in serum-free medium for 12 h or 4 h respectively and X-370 were added for an additional 1 h treatment following stimulation of IGF-1 at 100 ng/ml for MEF cells (C), LPA at 10 μM for MEF cells (D), MCP-1 at 100ng/ml for THP-1 (E) and M-CSF at 50 ng/ml for THP-1 (F). […]

SU-DHL-6 cells = experiment: Signaling by Western blot; type: cell-based, human
Procedure: (§1) Raji and SU-DHL-6 cells were treated with X-370 for 1 h (left panel) or treated with 0.5 μM X-370 for indicated times (middle panel). Right panel, Raji cells were incubated in fresh medium following treatment with 0.5 μM X-370 for 1 h. Indicated proteins were detected. (B) Raji-R (the rituximab-resistant derivatives of Raji cells) cells were resistant to X-370. The activity of X-370 on the proliferation of Raji parent and Raji-R cells was determined by CCK-8 assay as described in the methods section. (C) X-370 blocked phosphorylation of Akt but not Erk1/2 in Raji-R cells. Raji-R cells were treated with X-370 for 1h and indicated proteins were detected. Data shown are representative from three independent experiments.
(§2) Figure 5 Inhibition of Erk1/2 phosphorylation by X-370 contributed to its antiproliferative activity (A-C) X-370 inhibited Erk1/2 phosphorylation via PI3K-PDK1-MEK1/2 cascade but not the PI3K-Gab1 positive feedback loop. (A) Raji and SU-DHL-6 cells were exposed to 1 μM X370 for 3 h and protein fraction from cellular membrane was separated using Native Membrane Protein Extraction Kit and probed. WCL: whole cell lysate. (B) Inhibition of PDK1 or MEK1/2 abrogated Erk1/2 phosphorylation. Cells were treated with pharmacological inhibitors of Raf (AZ 628, PLX4032), MEK1/2 (AZD6244), p90RSK (BI-D1870), PI3Kδ (X-370), PDK1 (BX-912), Akt (MK-2206), mTOR (AZD8055) or mTORC1 (Rapamycin) respectively and indicated proteins were detected. (C) X-370 disrupted the association between PDK1 and MEK1/2. Raji cells were treated with 1 μM X370 for 1 h and cell lysates were immunoprecipitated with anti-PDK1 antibody and indicated proteins were detected. WCL: whole cell lysate. (D-F) Inhibition of Erk1/2 phosphorylation was required for the anti-proliferative activity of X-370. (D) Raji cells ectopically expressing a constitutively activated phospho-mimic MEK1 mutant (MEK1 […] or MEK DD) were incubated with X-370 or AZD6244 for 1 h and then subjected to Western blot. (E) Raji and Raji MEK DD cells were treated with X-370 for 72 h and cell proliferation was detected by CCK-8 assay. (F) Raji MEK DD cells were treated with X-370 and AZD6244 and cell proliferation was detected by CCK-8 assay. Data were show as mean ± SD of three independent experiments. *: p < 0.05 determined by t-tests at each data point. […]
(§3) Cells were treated as indicated conditions and then subjected to lysate to perform standard Western blot as described previously1. Briefly, whole-cell lysates and SDS-loading buffer diluted cell fractions were analyzed on SDS-PAGE gels. Transfer to nitrocellulose membranes, nonfat milk blocking, probing with indicated primary antibodies and the corresponding HRP-conjugated second antibodies.
(§4) Chemiluminescence were performed and captured using ImageQuant LAS 4000 (GE healthcare Life Sciences, Piscataway, NJ, USA) and band intensity was measure both with ImageQuant™ TL (GE Healthcare Life Sciences) 2. […]
(§5) (also on this page, place not known: PI3Kδ -dependent MEK1/2 - B -cell previously 1. whole -cell SDS -loading SDS -PAGE HRP -conjugated (G E A B Val828 Trp760 Thr750 Met752 Tyr813 affinity pocket specificity pocket hinge Glu826 CAL-101 X-370) […]
(§6) (1 picture or pasted object on this page, not shown here)

Raji cells = experiment: Signaling by Western blot; type: cell-based, human; conditions: Raji
Procedure: as §1, §2, §3, §4, §5, §6

`O=C(N1CCCC1)N1CCC(n2cnc3c(-n4c(C(F)F)nc5ccccc54)nc(N4CCOCC4)nc32)CC1` [X-370] was tested, and the “MCP-1-stimulated Akt phosphorylation” value [1] was “much less activity”, the “phosphorylation of Erk1/2 at T202/Y204” value (SU-DHL-6 cells; SU-DHL-6) was “decreased in lockstep with inactivation of Akt” and the “phosphorylation of Akt at the membrane” value (SU-DHL-6 cells; SU-DHL-6, 1 μM, 3 h, membrane fraction) was “abolished”. The “concentration as low as which Akt phosphorylation was significantly reduced” value (SU-DHL-6 cells; SU-DHL-6, 1 h) was 5 nM, the “reversibility of action on PI3K and Erk1/2 after compound removal” value (SU-DHL-6 cells; SU-DHL-6, 0.5 μM 1 h then drug-free medium, restoration after 15 minutes to 1 h) was “rapidly reversible” and the “phosphorylation of Erk1/2 at T202/Y204” value (Raji cells) was “decreased in lockstep with inactivation of Akt”. The “phosphorylation of MEK1/2 at Ser217/221” value (Raji cells; 1 μM, 1 h) was “inhibited”, the “phosphorylation of Akt at the membrane” value (Raji cells; 1 μM, 3 h, membrane fraction) was “abolished” and the “concentration as low as which Akt phosphorylation was significantly reduced” value (Raji cells; 1 h) was 5 nM. The “reversibility of action on PI3K and Erk1/2 after compound removal” value (Raji cells; 0.5 μM 1 h then drug-free medium, restoration after 15 minutes to 1 h) was “rapidly reversible”.
